{"source": "paper PMC5581314", "about": "“Targeting the Type II Secretion System: Development, Optimization, and Validation of a High-Throughput Screen for the Identification of Small Molecule Inhibitors” (Frontiers in Cellular and Infection Microbiology, 2017)"}
{"molecular_target": "T1, LipA (Acinetobacter baumannii, UniProt A0ABX6CKD6)", "T1 construct": "gene lip; secreted LipA from plasmid-encoded lipBA, in culture supernatant", "assay": "4-nitrophenyl myristate lipase assay; IC50 in whole culture, direct inhibition by cell-free supernatant counter-screen", "assay_type": "cell-based", "settings": "not given", "units": {"IC50": "µM"}}
{"smiles": "CCCCCCCCCCC[C@@H](C[C@@H]1OC(=O)[C@H]1CCCCCC)OC(=O)[C@H](CC(C)C)NC=O", "note": "[Orlistat]", "IC50": 0.0406}
{"smiles": "CNCCCN1c2ccccc2CCc2ccccc21", "note": "[Desiprimine]", "IC50": 16.5}
{"molecular_target": "T1, LipA", "assay": "4-nitrophenyl myristate lipase assay; IC50 in whole culture, direct inhibition by cell-free supernatant counter-screen", "assay_type": "cell-based", "settings": "read-out: IC50", "units": {"IC50": "µM"}}
{"smiles": "CNCCC=C1c2ccccc2CCc2ccccc21", "note": "[Aventyl]", "IC50": 14.5}
{"smiles": "CNCCC=C1c2ccccc2C=Cc2ccccc21", "note": "[Norcyclobenzaprine]", "IC50": 16}
{"smiles": "CN(CCCN1c2ccccc2CCc2ccccc21)CC(=O)c1ccc(Cl)cc1", "note": "[Lofepramine]", "IC50": 21}
{"smiles": "CNCCCC1c2ccccc2C=Cc2ccccc21", "note": "[Vivactil]", "IC50": 10}
